Test results from patent US4740501A (priority 1985, dated 1988).

Columns and labels:
[1] = test system: Raji B-lymphoma; test: Tumor cell survival (trypan blue), continuous exposure; format: cell-based, Human
[2] = test system: Hairy cell leukemia; test: Survival of fresh human leukemic cells, continuous exposure; format: cell-based

## CCOC(=O)[C@H](CCSC)NC(=O)[C@H](Cc1cccc(N(CCCl)CCCl)c1)NC(=O)[C@@H](N)Cc1ccc(F)cc1.Cl [PTT.119, 3-(p-fluorophenyl)-L-alanyl-3-[m-bis(2-chloroethyl)aminophenyl]-L-alanyl-L-methionine ethyl ester hydrochloride]
[1]; 10 ug/ml, 1 hr
  % tumor cell survival: 98%
[1]; 10 ug/ml, 4 hr
  % tumor cell survival: 98%
[1]; 10 ug/ml, 24 hr
  % tumor cell survival: 82%
[1]; 25 ug/ml, 1 hr
  % tumor cell survival: 100%
[1]; 25 ug/ml, 4 hr
  % tumor cell survival: 97%
[1]; 25 ug/ml, 8 hr
  % tumor cell survival: 97%
[1]; 25 ug/ml, 24 hr
  % tumor cell survival: 35%
[1]; 50 ug/ml, 1 hr
  % tumor cell survival: 94%
[1]; 50 ug/ml, 4 hr
  % tumor cell survival: 90%
[1]; 50 ug/ml, 8 hr
  % tumor cell survival: 76%
[1]; 50 ug/ml, 24 hr
  % tumor cell survival: 20%
[2]; 5 ug/ml, 1 hr
  % tumor cell survival: 100%
[2]; 5 ug/ml, 4 hr
  % tumor cell survival: 80%
[2]; 5 ug/ml, 24 hr
  % tumor cell survival: 34%
[2]; 10 ug/ml, 1 hr
  % tumor cell survival: 100%
[2]; 10 ug/ml, 4 hr
  % tumor cell survival: 71%
[2]; 10 ug/ml, 24 hr
  % tumor cell survival: 81%
[2]; 25 ug/ml, 1 hr
  % tumor cell survival: 92%
[2]; 25 ug/ml, 4 hr
  % tumor cell survival: 71%
[2]; 25 ug/ml, 24 hr
  % tumor cell survival: 12%
[2]; 50 ug/ml, 1 hr
  % tumor cell survival: 37%
[2]; 50 ug/ml, 4 hr
  % tumor cell survival: 21%
[2]; 50 ug/ml, 24 hr
  % tumor cell survival: 7%
